Laboratory results taken from patent publication US12070452B2, “Compounds targeting HSP110 protein for cancer treatment” (INSERM (Institut National de la Santé et de la Recherche …, priority 2018, dated 2024).

What was measured:
HSP110:STAT3 complex = target: T1, HSP110:STAT3 complex (Homo sapiens, UniProt Q92598); assay: Immunoprecipitation of HSP110:STAT3 complex in SW480 cells; format: cell-based; details: SW480 shCtrl cells, 10 μM, 48 h
T1 construct: disrupting HSP110:STAT3 complex within the cell using human colorectal SW480 cancer cells; endogenous in cells; host or cells: SW480 cells carrying control shRNA (shCtrl); sh110 cells as HSP110-depleted control
T1 sequence (Q92598 2-858 limits assumed, one chain of several): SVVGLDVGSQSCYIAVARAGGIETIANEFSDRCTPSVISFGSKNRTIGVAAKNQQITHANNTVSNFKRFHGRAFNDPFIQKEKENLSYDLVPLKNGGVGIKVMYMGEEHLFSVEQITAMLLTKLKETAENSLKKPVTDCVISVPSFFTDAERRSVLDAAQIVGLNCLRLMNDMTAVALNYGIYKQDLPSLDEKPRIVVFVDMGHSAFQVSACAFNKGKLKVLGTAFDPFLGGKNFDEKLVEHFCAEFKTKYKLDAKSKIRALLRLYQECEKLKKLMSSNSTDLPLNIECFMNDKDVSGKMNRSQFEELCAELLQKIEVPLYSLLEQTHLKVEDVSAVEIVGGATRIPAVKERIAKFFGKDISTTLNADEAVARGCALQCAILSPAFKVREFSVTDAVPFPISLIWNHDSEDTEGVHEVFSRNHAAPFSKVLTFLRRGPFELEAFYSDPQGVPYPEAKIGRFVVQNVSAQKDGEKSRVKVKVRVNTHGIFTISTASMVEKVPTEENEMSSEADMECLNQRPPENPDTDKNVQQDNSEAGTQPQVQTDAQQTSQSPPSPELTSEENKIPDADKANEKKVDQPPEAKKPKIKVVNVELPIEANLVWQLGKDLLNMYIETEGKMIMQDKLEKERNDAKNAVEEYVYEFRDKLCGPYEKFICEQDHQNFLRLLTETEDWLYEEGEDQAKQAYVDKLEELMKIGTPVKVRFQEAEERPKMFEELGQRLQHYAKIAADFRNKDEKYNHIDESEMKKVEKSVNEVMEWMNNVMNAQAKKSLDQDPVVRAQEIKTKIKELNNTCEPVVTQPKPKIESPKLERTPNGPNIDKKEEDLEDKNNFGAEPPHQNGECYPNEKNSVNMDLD
Protocol: FIG. 2A: Immunoprecipitation (IP) analysis of HSP110 protein (first line), STAT3 protein (second line) compared with total Immunoglobuline (Ig) and actin in SW480 cells treated with (from left to the right column) non-relevant antibody as control (called NT a Normal rabbit IgG (sc-2027) from Santa Cruz Biotechnologies), compound 52 (related to formula (III)), compound 33 (related to formula (II)), compound 51 (related to formula (IV)) and comparative compound 61 at a concentration of 10 μM during 48 h on shCtrl cells transfected with shRNA for shRNA control (referenced ShCtrl IP:STAT3 for the five first columns) or HSP110-silencing (sh110) (referenced sh110-IP:STAT3 for the two last columns) (from the left to the right columns). Immunoprecipitation analysis of HSP110 (first line), STAT3 (second line) compared with total Ig and actin (second blot in the right) is observed with shCtrl cells transfected with shRNA for shRNA control (shCtrl) or HSP110-silencing (sh110) (left to right columns).
FIG. 2B: Quantification of HSP110:STAT3 disruption in percentage considering the total amount of HSP110 protein normalized by the signal intensity of the Ig band of FIG. 1 panel A. (Ordinate: Percentage of STAT3:HSP110 protein interaction (scale 50)). The histogram measured quantification in percentage for ShCtrl IP: STAT3 treated with Ctrl, compounds 52, 33, 51 and comparative compound 61, and for shCtrl cells transfected with shRNA for shRNA control referenced ShCtrl IP: STAT3) or HSP110-silencing (sh110) (referenced sh110-IP: STAT3) (from the left to the right column)
(§1) Immunoprecipitation test were realized on human colorectal cancer cells (SW480 and HCT116 cell lines), using a control depleted in HSP110 called Sh110 and a not depleted cells in HSP110. STAT3 phosphorylation is then […] by compounds 33 and 52. Depletion of HSP110 in the negative control blocked the phosphorylation of STAT3 without affecting STAT3 overall levels (FIGS. 2 and 3).

phosphorylated STAT3 = assay: P-STAT3 level in SW480 cells (immunoblot quantification); format: cell-based, human; details: 10 μM, 48 h, normalized by actin
Protocol: Results for SW480 cells treated during 48 h with non-relevant antibody (called NT), compound 52, compound 33, compound 51 and comparative compound 61 at 10 μM, and sh110 cells correspond to the third fourth, fifth, sixth and last columns from the left to the right.
FIG. 3B: Quantification of P-STAT3 level (in percentage) normalized by actin. […] (Ordinate: Percentage of P-STAT3 level (scale 50)
as §1

human protein HSP110 = target: T2, human protein HSP110 (Homo sapiens, UniProt Q92598); assay: HSP110 anti-aggregation function (luciferase substrate test); format: biochemical; details: human HSP110 1.5 μM with firefly luciferase, 30 min at 42° C.; read-out: IC50 of HSP110 anti-aggregating activity
T2 construct: DNA coding the NBD-HSP110 (from human-HSP110)
T2 sequence (Q92598 whole entry, looked up): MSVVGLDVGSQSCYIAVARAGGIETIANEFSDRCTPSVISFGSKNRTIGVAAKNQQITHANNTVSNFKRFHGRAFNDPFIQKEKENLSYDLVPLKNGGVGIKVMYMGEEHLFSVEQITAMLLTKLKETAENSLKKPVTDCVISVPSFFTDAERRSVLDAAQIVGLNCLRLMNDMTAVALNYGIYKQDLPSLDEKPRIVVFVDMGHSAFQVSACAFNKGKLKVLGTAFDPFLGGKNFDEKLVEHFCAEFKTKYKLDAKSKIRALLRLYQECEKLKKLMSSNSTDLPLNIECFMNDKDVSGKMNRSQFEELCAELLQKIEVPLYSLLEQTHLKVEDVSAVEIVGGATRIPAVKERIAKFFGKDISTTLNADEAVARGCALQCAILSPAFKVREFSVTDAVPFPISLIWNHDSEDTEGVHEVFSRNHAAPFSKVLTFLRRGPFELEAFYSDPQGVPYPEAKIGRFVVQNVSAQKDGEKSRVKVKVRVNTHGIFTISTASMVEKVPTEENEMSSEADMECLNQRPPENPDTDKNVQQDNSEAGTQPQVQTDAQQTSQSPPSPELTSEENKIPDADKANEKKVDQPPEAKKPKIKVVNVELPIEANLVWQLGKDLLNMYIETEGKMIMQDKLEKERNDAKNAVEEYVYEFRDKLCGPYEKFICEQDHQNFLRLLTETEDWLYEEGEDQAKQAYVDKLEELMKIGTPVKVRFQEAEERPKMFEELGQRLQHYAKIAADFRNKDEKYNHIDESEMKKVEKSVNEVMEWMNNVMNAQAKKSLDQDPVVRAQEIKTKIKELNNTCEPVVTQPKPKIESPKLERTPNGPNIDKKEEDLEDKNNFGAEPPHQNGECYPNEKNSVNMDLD
Protocol: Anti-aggregation function of HSP110 was evaluated as described by O H et al (The Journal of biological chemistry 274, 15712-15718 (1999)). The human protein HSP110 (obtained as described above) at a concentration of 1.5 μM was incubated with firefly luciferase (from Sigma—from Photinus pyralis) in reaction buffer and heated in water bath for 30 min at 42° C.
Compounds of the present invention were added in reaction buffer to achieve the indicated concentrations and the final DMSO concentration was held constant at 1%. The heated reaction was diluted 10 times into buffer containing 60% of rabbit reticulocytelysate and incubated for 2 hours. The luciferase activity was measured by diluting 5 times the solution in HEPES and adding 5 μL of the solution in luciferase substrate (50 μL of Luciferase Assay System—Promega E1501 diluted in HEPES). The bioluminescence was reading with Envision Perkin Elmer.
The percentage of activity (x) was calculated by using the following equation: x=[(A−B)/(C−B)]×100, where (A) is the luciferase luminescence in presence of compounds of the invention, (B) in absence of HSP110 and (C) in presence of DMSO (Control). The percentage of total folding HSP110-promoted (mean=36%) was calculated considering as 100% the luminescence of luciferase incubated with HSP110 without heat shock. The IC50 were calculated from the dose-response curves, which were fitted by GraphPrism (Equation: Y=100/(1+10^((Log IC50−X)*HillSlope)).

HSP110/Myd88 interaction = target: T3, HSP110/Myd88 interaction (Homo sapiens, UniProt Q92598); assay: Immunoprecipitation of HSP110/Myd88 in DLBCL cell line; format: cell-based; details: IP Myd88, Western Blot
T3 construct: endogenous in cells
T3 sequence (Q92598 2-858 limits assumed): as the sequence (Q92598 2-858 limits assumed, one chain of several) above
Description: FIG. 10A: Immunoprecipitation (IP) analysis of HSP110 (first line), Myd88 (second line), heavy chains (third line) and actin (fourth line) in large B cell lymphoma cell lines (DLBCL).
Left part of FIG. 10A (“Inputs”): treated with (from left to right column of the left part of FIG. 10A) DMSO, compound 52 (5052), compound 33 (5033) and compound 61 (5061) (Negative control);
Middle part of FIG. 10A (“IP Myd88”): treated with (from left to right column of the middle part of FIG. 10A) DMSO, compound 52, compound 33 and compound 61 (as the negative control); Myd88 was immunoprecipitated with an antibody specifically directed against Myd88.
MyD88 was immuno-precipitated from the cell line which has been non-treated or treated with the HSP110 inhibitors.

CT26 cells = assay: Flow cytometric analysis of cell death (Annexin V / 7-AAD) in CT26 cells; format: cell-based, mouse; details: 10 μM, 96 h
Protocol: FIG. 5A: Flow cytometric analysis of cell death in CT26 cells treated with the compound 33 (at the bottom left), compound 52 (at the bottom middle), comparative compound 61 (at the bottom right) at 10 μM during 96 h compared with Control (DMSO) (at the top left), and Cisplatin (at the top middle and top right). Live cells were double negative for 7-AAD (Y axis) and Annexin V (X axis), early apoptotic cells were positive for Annexin V, late apoptotic cells were positive for Annexin V and 7-AAD ([…]) and dead cells were positive for 7-AAD only.
FIG. 5B: Quantification of cell viability (in percentage) from flow cytometry data are represented (Control, cells, compounds 33, 52 and 61 from the left to the right bars). (Abscissa Negativity of 7-AAD; Ordinate Negativity of Annexin V).
We then analyzed cell death in CT26 cells treated with 10 μM during 96 h of compounds 33, 52 and 61 by flow cytometry. Cells were also treated with a well know anti-cancer compound, called cisplatin. Cells were marked for 7-aminoactinomycin D, which exclusively bind on death cells and for Annexin V, a well-known indicators of early stage apoptosis, thanks to its ability to bind to phosphatidylserine.

SMILES	percentage of interaction of STAT3:HSP110 (HSP110:STAT3 complex)	P-STAT3 level (phosphorylated STAT3)	IC50 (human protein HSP110) [µM]	HSP110/Myd88 interaction (HSP110/Myd88 interaction)	cell death / apoptosis (Annexin V and 7-AAD marking) (CT26 cells)
COc1ccc(-c2cnc(-c3cnc(-c4ccc(OC)c(OC)c4)c(C)c3)c(/C=C/c3ccccc3)c2)cc1OC [compound 51, (E)-5,6′-Bis(3,4-dimethoxyphenyl)-5′-methyl-3-styryl-2,3′-bipyridine]	not decrease	about 50%			
N#CCc1cccc(-c2cnc(Cl)c(/C=C/c3ccccc3)c2)c1 [compound 61, (E)-2-(3-(6-Chloro-5-styrylpyridin-3-yl)phenyl) acetonitrile, reference compound]	not decrease	100%	227.5 ± 1.9	does not inhibit	don't seem to be marked
